Data: patent US20250257086A1, “EGFR DEGRADATION AGENT” (Beijing Tide Pharmaceutical Co., Ltd., priority 2022, published 2025)
Where two headings read alike, the source gives them in different places.

How the values were obtained:
Assay type in all cases: cell-based
[1] = test system: H1975 (EGFR^L858R/T790M) cells; assay: Antiproliferative activity on H1975 (EGFR L858R/T790M) cells (CTG); details: Homo sapiens, read-out: IC50 (nM), antiproliferative activity
Experimental: 30 nL of the compound dilution was added to a 384-well plate by Echo (Labcyte, Echo550).
The percent inhibition rate (% inhibition) was calculated by the following formula
[formula] • LUMcmpd: Luminescence value of assay compound. • LUMpositive: Average LUM value of positive drug with a concentration of 10 μM. • LUMvehicle: Average LUM value of negative control group without drug treatment.
The nonlinear regression curve (dose response-variable slope) between the value of inhibition rate (%) and the logarithm of compound concentration was fitted with graphpad prism 8.0, the effect dose curve of compound was drawn, and the IC50 value was calculated.
Y=Bottom+(Top−Bottom)/(1+10^((Log IC50−X)*HillSlope)) • X-axis: logarithm of compound concentration; Y axis: inhibition rate (inhibition).

[2] = target: Ba/F3 (EGFR^L858R/T790M/C797S) cells (Homo sapiens, UniProt P00533, T790M/C797S/L858R, cells depend on it); assay: Antiproliferative activity on Ba/F3 (EGFR L858R/T790M/C797S) cells (CTG); details: 72h incubation, CTG luminescence, read-out: IC50 (nM), antiproliferative activity
Chain of Ba/F3 (EGFR^L858R/T790M/C797S) cells (P00533 whole entry T790M/C797S/L858R): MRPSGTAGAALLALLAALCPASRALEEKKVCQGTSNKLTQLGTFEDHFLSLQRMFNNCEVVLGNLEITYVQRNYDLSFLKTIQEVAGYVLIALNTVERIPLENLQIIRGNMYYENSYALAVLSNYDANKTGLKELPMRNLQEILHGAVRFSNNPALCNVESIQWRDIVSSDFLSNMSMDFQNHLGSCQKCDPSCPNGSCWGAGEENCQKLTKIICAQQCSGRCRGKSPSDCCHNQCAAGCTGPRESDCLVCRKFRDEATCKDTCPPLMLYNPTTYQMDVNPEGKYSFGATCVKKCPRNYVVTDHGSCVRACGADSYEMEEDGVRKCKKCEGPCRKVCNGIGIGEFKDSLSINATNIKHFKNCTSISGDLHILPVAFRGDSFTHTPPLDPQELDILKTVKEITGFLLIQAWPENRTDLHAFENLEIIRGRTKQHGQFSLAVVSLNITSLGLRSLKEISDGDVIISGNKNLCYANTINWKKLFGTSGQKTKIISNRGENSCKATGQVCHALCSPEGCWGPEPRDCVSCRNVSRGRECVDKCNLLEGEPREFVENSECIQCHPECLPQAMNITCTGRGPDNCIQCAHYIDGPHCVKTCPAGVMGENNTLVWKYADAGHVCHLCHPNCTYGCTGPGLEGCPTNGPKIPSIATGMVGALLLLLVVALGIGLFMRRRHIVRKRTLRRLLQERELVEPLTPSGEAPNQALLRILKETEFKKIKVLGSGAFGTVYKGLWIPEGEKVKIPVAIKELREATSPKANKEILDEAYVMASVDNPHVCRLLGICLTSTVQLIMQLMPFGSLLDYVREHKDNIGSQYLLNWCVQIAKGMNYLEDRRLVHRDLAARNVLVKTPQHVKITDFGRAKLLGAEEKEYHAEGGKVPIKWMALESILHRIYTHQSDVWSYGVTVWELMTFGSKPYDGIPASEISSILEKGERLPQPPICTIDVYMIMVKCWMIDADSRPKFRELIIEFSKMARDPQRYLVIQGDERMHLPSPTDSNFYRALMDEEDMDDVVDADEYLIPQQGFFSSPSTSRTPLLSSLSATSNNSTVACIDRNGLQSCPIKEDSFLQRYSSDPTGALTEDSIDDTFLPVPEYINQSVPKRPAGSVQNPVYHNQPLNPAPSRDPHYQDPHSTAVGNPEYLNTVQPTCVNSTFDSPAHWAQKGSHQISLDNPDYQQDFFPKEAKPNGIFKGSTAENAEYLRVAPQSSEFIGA
Method in brief: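 Luminescent CellTiter-Glo read-out on Ba/F3 cells carrying EGFR L858R/T790M/C797S. Inhibition normalised between untreated vehicle and a 10 μM positive drug. IC50 taken from a variable-slope four-parameter fit of inhibition against log compound concentration.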

[3] = target: T1, EGFR^L858R/T790M/C797S protein (Homo sapiens, UniProt P00533, C797S/L858R/T790M); assay: Induction of EGFR L858R/T790M/C797S protein degradation in Ba/F3 cells (Alpha counts); details: 24h treatment; for degradation effect on EGFR^L858R/T790M/C797S protein (in words): FIG. 1 and 2
T1 construct: expressed in transfected cells; host or cells: Ba/F3 (EGFR^L858R/T790M/C797S) cells
T1 sequence (P00533 25-1210 T790M/C797S/L858R): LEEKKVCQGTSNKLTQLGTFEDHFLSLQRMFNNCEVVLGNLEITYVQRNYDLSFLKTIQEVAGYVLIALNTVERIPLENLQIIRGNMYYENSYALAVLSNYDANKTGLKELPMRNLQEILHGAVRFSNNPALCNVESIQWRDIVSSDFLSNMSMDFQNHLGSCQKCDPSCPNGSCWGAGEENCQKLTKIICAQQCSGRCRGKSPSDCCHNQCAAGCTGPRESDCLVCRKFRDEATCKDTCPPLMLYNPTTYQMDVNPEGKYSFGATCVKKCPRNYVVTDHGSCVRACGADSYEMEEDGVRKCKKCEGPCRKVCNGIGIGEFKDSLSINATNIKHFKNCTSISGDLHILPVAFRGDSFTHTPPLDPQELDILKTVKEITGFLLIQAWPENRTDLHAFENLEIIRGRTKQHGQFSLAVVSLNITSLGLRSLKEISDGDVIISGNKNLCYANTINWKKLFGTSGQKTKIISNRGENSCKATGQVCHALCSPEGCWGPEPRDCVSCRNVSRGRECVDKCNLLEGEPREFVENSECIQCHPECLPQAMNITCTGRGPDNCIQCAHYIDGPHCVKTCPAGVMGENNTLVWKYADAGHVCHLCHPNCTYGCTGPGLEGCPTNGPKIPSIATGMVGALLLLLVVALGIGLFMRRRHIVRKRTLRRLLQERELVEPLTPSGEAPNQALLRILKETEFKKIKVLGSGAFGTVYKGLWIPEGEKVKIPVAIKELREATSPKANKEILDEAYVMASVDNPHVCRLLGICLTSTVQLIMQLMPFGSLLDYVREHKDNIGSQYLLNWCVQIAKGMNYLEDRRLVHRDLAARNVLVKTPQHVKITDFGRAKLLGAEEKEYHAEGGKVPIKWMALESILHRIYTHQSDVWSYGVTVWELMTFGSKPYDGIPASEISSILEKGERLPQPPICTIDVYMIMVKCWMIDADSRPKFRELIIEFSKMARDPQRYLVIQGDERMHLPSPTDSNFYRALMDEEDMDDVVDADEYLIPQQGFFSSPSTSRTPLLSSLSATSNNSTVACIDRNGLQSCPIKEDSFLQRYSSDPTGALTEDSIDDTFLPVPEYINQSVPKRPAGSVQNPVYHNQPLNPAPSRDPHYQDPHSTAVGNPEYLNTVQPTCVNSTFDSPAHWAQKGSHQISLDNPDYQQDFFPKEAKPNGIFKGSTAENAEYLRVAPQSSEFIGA
Experimental: Ba/F3 (EGFR^L858R/T790M/C797S) and Ba/F3 (EGFR^Del19/T790M/C797S) cells were cultured according to the culture conditions recommended by ATCC, and analyzed by index.
Culture conditions: incubated at 37° C., 95% air, 5% CO2 incubator.
(2) Compound Stock Solution: 10 mM Stock Solution in DMSO, Stored at −20° C.
The cells in the cell culture bottle were collected, and the cells with viability of >90% can be used in the assay. Cells were seeded in a 96-well plate with 40 μL cells, 1*10^5 cells/well.
The compounds were serially diluted 3× with DMSO, with the starting concentrations of the compounds being 1.0 mM (EGFR^L858R/T790M/C797S assay) and 10 mM (EGFR^Del19/T790M/C797S assay), respectively, into 10 concentrations to prepare working solutions.
(5) Compound was Pipetted into the 96-Well Plate to Treat Cells in a 37° C., 95% Air, 5% CO2 Incubator for 24h.
• 1) 1 μg/mL EGF stimulated cells for 10 min; • 2) After the compound treatment was completed, lysis buffer was added to lyse cells; 10 μL of cell lysate was transferred to the 384-well plate; in addition, control lysate, negative control and 5 μL of acceptor mix were added to the 384-well plate; The plate was shaken on a shaker for 1-2 min; • 3) 5 μL of donor mix was added to each well; the 384-well plate was sealed, shaken on a shaker for 1-2 min, and left in the dark at room temperature overnight; then the plate was read with ELISA reader.
Alpha counts were fitted by logarithmic treatment of compound concentration with Graphpad Prism 8.0.
[formula] • X: logarithm of compound concentration; Y: Alpha Counts.

GI50 [2] | Structure (SMILES) | other results
18.1 nM | CP(C)(=O)c1ccccc1Nc1nc(Nc2ccc(N3CCC(N4CCN(CCCC#Cc5cccc6c5CN(C5CCC(=O)NC5=O)C6=O)CC4)CC3)c(NC(=O)/C=C/C(F)(F)F)c2)ncc1Cl (centres unmarked) [Compound D667, (E)-N-(5-((5-chloro-4-((2-(dimethylphosphoryl)phenyl)amino)pyrimidin-2-yl)amino)-2-(4-(4-(5-(2-(2,6-dioxopiperidin-3-yl)-1-oxoisoindolin-4-yl)pent-4-yn-1-yl)piperazin-1-yl)piperidin-1-yl)phenyl)-4,4,4-trifluorobut-2-enamide] | –
94.3 nM | COc1cc(N2CCC(N3CCN(CCCCC#Cc4ccc5c(c4)CN(C4CCC(=O)NC4=O)C5=O)CC3)CC2)c(NC(=O)/C=C/C(F)(F)F)cc1Nc1ncc(Cl)c(Nc2ccccc2P(C)(C)=O)n1 (centres unmarked) [Compound D623, N-(5-((5-chloro-4-((2-(dimethylphosphoryl)phenyl)amino)pyrimidin-2-yl)amino)-2-(4-(4-(6-(2-(2,6-dioxopiperidin-3-yl)-1-oxoisoindolin-5-yl)hex-5-yn-1-yl)piperazin-1-yl)piperidin-1-yl)-4-methoxyphenyl)-4,4,4-trifluorobut-2-enamide] | –
3.36 nM | C=C(F)C(=O)Nc1cc(Nc2ncc(C(F)(F)F)c(Nc3ccccc3P(C)(C)=O)n2)c(OC)cc1N1CCC(N2CCN(CCCC#Cc3cccc4c3CN(C3CCC(=O)NC3=O)C4=O)CC2)CC1 (centres unmarked) [Compound D746, N-(5-((4-((2-(dimethylphosphoryl)phenyl)amino)-5-(trifluoromethyl)pyrimidin-2-yl)amino)-2-(4-(4-(5-(2-(2,6-dioxopiperidin-3-yl)-1-oxoisoindolin-4-yl)pent-4-yn-1-yl)piperazin-1-yl)piperidin-1-yl)-4-methoxyphenyl)-2-fluoroacrylamide] | –
48.1 nM | CCCC#CC(=O)Nc1cc(Nc2ncc(Cl)c(Nc3ccccc3P(C)(C)=O)n2)c(OC)cc1N1CCC(N2CCN(CCCC#Cc3cccc4c3CN(C3CCC(=O)NC3=O)C4=O)CC2)CC1 (centres unmarked) [Compound D631, N-(5-((5-chloro-4-((2-(dimethylphosphoryl)phenyl)amino)pyrimidin-2-yl)amino)-2-(4-(4-(5-(2-(2,6-dioxopiperidin-3-yl)-1-oxoisoindolin-4-yl)pent-4-yn-1-yl)piperazin-1-yl)piperidin-1-yl)-4-methoxyphenyl)hex-2-ynamide] | –
10.3 nM | CC#CC(=O)Nc1cc(Nc2ncc(Cl)c(Nc3ccccc3P(C)(C)=O)n2)ccc1N1CCC(N2CCN(CCCC#Cc3cccc4c3CN(C3CCC(=O)NC3=O)C4=O)CC2)CC1 (centres unmarked) [Compound D665, N-(5-((5-chloro-4-((2-(dimethylphosphoryl)phenyl)amino)pyrimidin-2-yl)amino)-2-(4-(4-(5-(2-(2,6-dioxopiperidin-3-yl)-1-oxoisoindolin-4-yl)pent-4-yn-1-yl)piperazin-1-yl)piperidin-1-yl)phenyl)but-2-ynamide] | –
45.6 nM | COc1cc(N2CCC(N3CCN(CCCC#Cc4cccc5c4CN(C4CCC(=O)NC4=O)C5=O)CC3)CC2)c(NC(=O)/C=C/c2cccs2)cc1Nc1ncc(Cl)c(Nc2ccccc2P(C)(C)=O)n1 (centres unmarked) [Compound D583, (E)-N-(5-((5-chloro-4-((2-(dimethylphosphoryl)phenyl)amino)pyrimidin-2-yl)amino)-2-(4-(4-(5-(2-(2,6-dioxopiperidin-3-yl)-1-oxoisoindolin-4-yl)pent-4-yn-1-yl)piperazin-1-yl)piperidin-1-yl)-4-methoxyphenyl)-3-(thiophen-2-yl)acrylamide] | –

Further lines, the compound ahead of its results:

Structure (SMILES) | GI50 [2] | other results
C=CC(=O)Nc1cc(Nc2nccc(-c3cn(C)c4ccccc34)n2)c(OC)cc1N(C)CCN(C)C [Osimertinib] | – | IC50 ([1]; NCI-H1975, 72 h): 10.7 nM
C=C(F)C(=O)Nc1cc(Nc2ncc(Cl)c(Nc3ccccc3P(C)(C)=O)n2)c(OC)cc1N1CCC(N2CCN(C)CC2)CC1 [Comparative compound L527, reference compound] | 458 nM | degradation effect on EGFR^L858R/T790M/C797S protein (in words) [3]: no degradation effect
C=C(F)C(=O)Nc1cc(Nc2ncc(Br)c(Nc3ccccc3P(C)(C)=O)n2)c(OC)cc1N1CCC(N2CCN(CCCC#Cc3cccc4c3CN(C3CCC(=O)NC3=O)C4=O)CC2)CC1 (centres unmarked) [Compound D078, N-(5-((5-bromo-4-((2-(dimethylphosphoryl)phenyl)amino)pyrimidin-2-yl)amino)-2-(4-(4-(5-(2-(2,6-dioxopiperidin-3-yl)-1-oxoisoindolin-4-yl)pent-4-yn-1-yl)piperazin-1-yl)piperidin-1-yl)-4-methoxyphenyl)-2-fluoroacrylamide] | 19.2 nM | degradation effect on EGFR^L858R/T790M/C797S protein (in words) [3]: significant degradation effect; DC50 ([3]; range 1 nM to 1000 nM, FIG. 1 and 2, read-out: DC50, reduction of EGFR^L858R/T790M/C797S protein level): 84.7 nM
COc1cc(N2CCC(N3CCN(CCCC#Cc4cccc5c4CN(C4CCC(=O)NC4=O)C5=O)CC3)CC2)ccc1Nc1ncc(Cl)c(Nc2ccccc2P(C)(C)=O)n1 (centres unmarked) [Comparative compound C126] | – | IC50 ([1]; NCI-H1975, H1975 (EGFR^L858R/T790M) cells, 72h incubation, CTG luminescence): 1390 nM
COc1cc(N2CCC(N3CCN(CCCCCC#Cc4cccc5c4CN(C4CCC(=O)NC4=O)C5=O)CC3)CC2)c(NC(=O)/C=C/CN(C)C)cc1Nc1ncc(Cl)c(Nc2ccccc2P(C)(C)=O)n1 (centres unmarked) [Compound D557, (E)-N-(5-((5-chloro-4-((2-(dimethylphosphoryl)phenyl)amino)pyrimidin-2-yl)amino)-2-(4-(4-(7-(2-(2,6-dioxopiperidin-3-yl)-1-oxoisoindolin-4-yl)hept-6-yn-1-yl)piperazin-1-yl)piperidin-1-yl)-4-dimethoxyphenyl)-4-(dimethylamino)but-2-enamide] | 383 nM | –
C=C(F)C(=O)Nc1cc(Nc2ncc(Cl)c(Nc3ccccc3P(C)(C)=O)n2)c(OC)cc1N1CCC(N2CCN(CCCCCC#Cc3cccc4c3CN(C3CCC(=O)NC3=O)C4=O)CC2)CC1 (centres unmarked) [Compound D554, N-(5-((5-chloro-4-((2-(dimethylphosphoryl)phenyl)amino)pyrimidin-2-yl)amino)-2-(4-(4-(7-(2-(2,6-dioxopiperidin-3-yl)-1-oxoisoindolin-4-yl)hept-6-yn-1-yl)piperazin-1-yl)piperidin-1-yl)-4-methoxyphenyl)-2-fluoroacrylamide] | 45.2 nM | –
C=CC(=O)Nc1cc(Nc2ncc(Br)c(Nc3ccccc3P(C)(C)=O)n2)ccc1N1CCC(N2CCN(CCCCC#Cc3cccc4c3CN(C3CCC(=O)NC3=O)C4=O)CC2)CC1 (centres unmarked) [Compound D550, N-(5-((5-bromo-4-((2-(dimethylphosphoryl)phenyl)amino)pyrimidin-2-yl)amino)-2-(4-(4-(6-(2-(2,6-dioxopiperidin-3-yl)-1-oxoisoindolin-4-yl)hex-5-yn-1-yl)piperazin-1-yl)piperidin-1-yl)phenyl)acrylamide] | 14.4 nM | –
C=CC(=O)Nc1cc(Nc2ncc(Br)c(Nc3ccccc3P(C)(C)=O)n2)c(OC)cc1N1CCC(N2CCN(CCCCCC#Cc3cccc4c3CN(C3CCC(=O)NC3=O)C4=O)CC2)CC1 (centres unmarked) [Compound D503, N-(5-((5-bromo-4-((2-(dimethylphosphoryl)phenyl)amino)pyrimidin-2-yl)amino)-2-(4-(4-(7-(2-(2,6-dioxopiperidin-3-yl)-1-oxoisoindolin-4-yl)hept-6-yn-1-yl)piperazin-1-yl)piperidin-1-yl)-4-methoxyphenyl)acrylamide] | 51.2 nM | –
